Results: patent publication US8198231B2, “Compositions and methods for treatment of staphylococcal infection while suppressing formation of antibiotic-resistant strains” (priority 1999, dated 2012)

Tests used:
[1] = system: staphylococcal infected rabbits; assay: Rabbit model of aortic valve endocarditis; type: in vivo
Excerpt: The simultaneous treatment of staphylococcal infection with suppression of resistant strain formation is an exciting and widely useful invention nowhere predicted in the art. This invention offers the possibility of treating staphylococcal infections while suppressing the generation of strains resistant to any or all active agents administered.

[2] = system: strains 27619, Col, 27227 and VA348; assay: Checkerboard susceptibility testing of lysostaphin and oxacillin; type: cell-based; details: oxacillin in concentrations up to 1 μg/ml; all strains tested
Procedure: Checkerboard susceptibility testing was conducted to determine whether simultaneous administration of lysostaphin and oxacillin (a β-lactam) would be effective in suppressing the development of resistance. Oxacillin concentrations varied between 0.0156 μg/ml and 1 μg/ml. Lysostaphin concentrations varied between 0.00048 and 0.9 μg/ml. Four strains were tested for evidence of synergy between lysostaphin and oxacillin; 27619, Col, 27227 and VA348.

[3] = lysostaphin 1 mg/kg bid (low dose), alone or together with nafcillin

lysostaphin was tested, and the “Bacterial counts in kidneys” value [1, 3] was “high counts”, the “Bacterial counts in vegetations” value [1, 3] was “high counts” and the “Recovery of resistant colonies/strains” value [1, 3] was “recovery of a number of resistant colonies”. The “Minimum dose for sterilization” value ([1]; lysostaphin alone) was 5 mg/kg tid and the “MIC of lysostaphin in the presence of oxacillin” value [2] was “unchanged”.
